Measured values as given in US12171737B2, “Methods for reducing the symptoms of neurodegenerative disease in a human” (priority 2021, dated 2024).

Key:
[1] = tested on: gram positive and negative bacteria as well as fungi including Malassezia, Aspergillus, and Candida; assay: Anti-microbial capacity of K-CLA; type: cell-based
patient with dystonia = assay: Case reports: skin application in patients with dystonia (Examples 1, 2); type: in vivo, human; settings: Example 1 patient, right arm dystonia; salve applied
Source text: Over the years, I observed progression of dystonia of a patient. […] An extended forearm wrist rotation was used to identify and measure progression of dystonia. A normal human can rotate the wrist of the fully extended arm more than 270 degrees. The patient was falling to 200 degrees with increasing pain in the opposing forearm muscles.
Last spring, I applied a salve of K-CLA, potassium-conjugated linoleic acid, to potentially kill the microbial residents in the skin causing the dystonia.
This person presented with right arm dystonia after complaints of hand incoordination worsening with vibration. Muscle tenderness and loss of range of motion of extended-wrist rotation defined the clinical diagnosis confirmed by pattern EMG (Nicolet) within a university neurology clinic. The Potassium safflowerate of Example 11 as a salve. […] The improved capacity including reduction in hand tremor has continued with application of Example 10 and 11 application every 2-7 days.

[2] = tested on: patient with Parkinsonism; assay: Case reports: skin application in patients with Parkinsonism/dystonia (Examples 3-5); type: in vivo, human
Source text: This person presented with left hemiparetic neglect, reduced finger fine motor capacity, flat affect, tremor, and reduced extended arm wrist rotation and loss of shoulder extension and abduction. The diagnosis of Parkinsonism on clinical grounds was confirmed at a major hospital chain neurology clinic. […] Their extended wrist rotation range measured 60 degrees initially; by six months this approached 200 degrees. At 3 months they could extend their shoulder quickly to 180 degrees (initially slowly to 60 degrees.) This functionality continues to be maintained over 15 months of intermittent applications of salve and ingestion of isomerized safflowerate.
This person presented while on Sinemet prescribed by a major hospital chain neurology clinic for Parkinsonism. […] They also had reduced head rotation with painful limitation.
This individual stopped his Sinemet, continued every other day application of the Example 12 and oral intake of isomerized safflowerate. Improvement has maintained for 4 months, with rare intermittent right-hand tremors after a day of heavy farming.
This person sustained the onset of right arm dystonic Parkinsonism several months after a traumatic brain injury. […] Personal life issues prevented further applications.
The patient was instructed to rotate, extend and open their hand while they were actively having right hand-arm Parkinsonism tremors. They were unable to either rotate their wrist or open their hand voluntarily initially as shown on the left picture so they attempt to force it open with their left hand. The patient was treated with application of the salve over their right arm, subocciput, and upper torso bilaterally.

patient with Alzheimer's = assay: Case reports: skin application in Alzheimer's syndrome (Examples 7, 8); type: in vivo, human; settings: patient with early Alzheimer's disease and cortical atrophy
[3] = tested on: patients having dystonia with traumatic brain injury; assay: Video capture of wrist rotation before and after application, five patients with Dystonia/Parkinsonism (Example 9); type: in vivo, human; settings: for increase in external wrist rotation / increase in internal wrist rotation: FIG. 1
Source text: Five patients aged 42-67 using recorded videos of hand movement Dystonia/Parkinsonism before and after application of Example 12 for 5-10 days. Four had bilateral symptoms. Using video capture to measure the rotation of their wrists before and after application of the […]. […] This improvement has been sustained with intermittent continuing application of the salve to the skin of the forearm and shoulder for 3 months.
Subsequently, I have recorded videos of hand movement in patients with Dystonia/Parkinsonism before and after similar treatment. Several had bilateral symptoms. Video capture was used to measure the rotation of their wrists before and after application of the K-CLA 0.1-12%. […] This improvement has been sustained with intermittent continuing application of the salve to the skin of the forearm and shoulder. […] Application of a broad spectrum antimicrobial with profound antifungal capacity can reverse symptoms of Dystonia/Parkinsonism.

[4] = tested on: bacteria and fungi (cross-kingdom); settings: hospital disinfection; Changaris and Carenbauer 2022; cited from earlier work
[5] = tested on: malassezia species, candida, aspergillus and many gram positive and negative bacteria; settings: Changaris and Sullivan 2019; cited from earlier work

Molecule | anti-microbial capacity [1] | dystonic symptoms (patient with dystonia) | skin reactions ([2]; hemiparetic Parkinsonism patient and early Alzheimer's patient, skin application) | acute hemiparetic Parkinsonism ([2]; patient who refused conventional medications, salve) | mental acuity and emotionality (patient with Alzheimer's) | extended wrist rotation ([3]; applied as salve, within weeks) | increase in external wrist rotation ([3]; first patient) [%] | increase in internal wrist rotation ([3]; first patient) [%] | capacity to draw, patient's own impression ([3]; one patient, an architect) | increase in external wrist rotation ([3]; second patient) [%] | increase in internal wrist rotation ([3]; second patient) [%] | cross-kingdom anti-bacterial and anti-fungal efficacy [4] | biocidal capacity [5] | right arm dystonic Parkinsonism ([2]; Example 5, person, as tolerated)
potassium-conjugated linoleic acid [K-CLA] | extraordinary anti-microbial capacity | Most of the dystonic symptoms were resolved | intense skin reactions | improving acute hemiparetic Parkinsonism with both strength and agility | clinical improvement in mental acuity and emotionality | measurable improvement | ~20 | ~30 | capacity to draw has improved | ~10 | ~20 | sufficient to satisfy the United States Environmental Protection Agency requirements for hospital disinfection | biocidal capacity against at least four malassezia species | 
C#CCN(C)[C@H](C)Cc1ccccc1 [selegiline, reference compound] |  |  |  |  |  |  |  |  |  |  |  |  |  | without significant improvement
